Measured values reported in patent US20230151003A1, “COMPOUNDS AND METHODS OF USE” (Exelixis, Inc., priority 2020, published 2023).
pIC50: −log10 of the molar value. Where a name gives a salt, the structure may show the parent alone.

These compounds were tested against KDR (Homo sapiens, UniProt P35968) (assay: KDR autophosphorylation ELISA in HUVEC cells). Conditions: Table 3 Cellular Activities, VEGF165-stimulated, phospho-KDR ELISA.
Type: cell-based
Parameters: endogenous in cells; host or cells: HUVEC (Lonza #C2519A)
Summary of the method: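 Serum-starved (24 h) primary HUVEC were pretreated 1 h with compounds (8-point dilution, 0.3% DMSO final), then stimulated 5 min with 100 ng/mL VEGF165. Lysate phospho-KDR quantified by sandwich ELISA against a phospho-KDR standard; IC50 by 4-parameter fit, normalised to stimulated DMSO and unstimulated controls.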

Chain of KDR (P35968 20-1356): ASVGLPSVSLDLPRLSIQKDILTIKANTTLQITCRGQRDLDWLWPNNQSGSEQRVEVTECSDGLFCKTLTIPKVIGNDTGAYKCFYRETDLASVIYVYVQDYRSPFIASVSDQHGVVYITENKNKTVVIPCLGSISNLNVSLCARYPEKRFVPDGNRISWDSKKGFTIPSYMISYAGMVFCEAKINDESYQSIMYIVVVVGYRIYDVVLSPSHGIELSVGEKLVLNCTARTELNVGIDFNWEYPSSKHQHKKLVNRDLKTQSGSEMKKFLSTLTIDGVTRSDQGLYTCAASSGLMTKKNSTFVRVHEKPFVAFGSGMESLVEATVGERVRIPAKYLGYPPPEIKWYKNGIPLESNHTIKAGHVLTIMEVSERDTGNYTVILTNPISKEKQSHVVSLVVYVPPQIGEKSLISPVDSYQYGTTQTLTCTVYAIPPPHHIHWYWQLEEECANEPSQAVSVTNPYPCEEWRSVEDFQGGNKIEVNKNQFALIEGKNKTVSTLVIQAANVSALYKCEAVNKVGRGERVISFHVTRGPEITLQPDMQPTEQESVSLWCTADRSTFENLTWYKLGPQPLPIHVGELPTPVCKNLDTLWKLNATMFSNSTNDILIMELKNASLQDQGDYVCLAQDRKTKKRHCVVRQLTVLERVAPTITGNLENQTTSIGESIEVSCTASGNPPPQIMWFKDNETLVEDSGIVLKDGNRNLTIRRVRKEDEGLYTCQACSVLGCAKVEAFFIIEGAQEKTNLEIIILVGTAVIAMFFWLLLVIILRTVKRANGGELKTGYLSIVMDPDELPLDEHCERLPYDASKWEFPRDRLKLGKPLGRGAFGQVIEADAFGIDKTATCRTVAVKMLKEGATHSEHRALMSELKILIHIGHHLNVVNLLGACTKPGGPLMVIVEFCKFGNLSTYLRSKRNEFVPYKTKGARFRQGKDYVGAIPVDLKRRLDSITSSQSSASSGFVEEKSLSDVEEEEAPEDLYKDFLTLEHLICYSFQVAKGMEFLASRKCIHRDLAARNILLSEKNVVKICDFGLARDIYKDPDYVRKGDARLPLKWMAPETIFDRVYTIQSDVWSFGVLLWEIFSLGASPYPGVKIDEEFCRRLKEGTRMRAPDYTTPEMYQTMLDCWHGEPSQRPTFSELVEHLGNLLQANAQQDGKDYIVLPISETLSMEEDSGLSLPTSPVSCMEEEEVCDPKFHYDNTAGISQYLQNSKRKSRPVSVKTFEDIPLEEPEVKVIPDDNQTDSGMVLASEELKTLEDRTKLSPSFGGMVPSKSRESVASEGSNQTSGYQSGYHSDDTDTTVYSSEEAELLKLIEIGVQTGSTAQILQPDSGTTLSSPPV

| Compound | pIC50 |
| --- | --- |
| COc1cc2nccc(Oc3ccc(NC(=O)c4c5n(cc(-c6ccoc6)c4=O)CCOC5)cc3)c2nc1OC [Compound 310, N-[4-[(6,7-Dimethoxy-1,5-naphthyridin-4-yl)oxy]phenyl]-7-(furan-3-yl)-8-oxo-3,4-dihydro-1H-pyrido[2,1-c][1,4]oxazine-9-carboxamide] | 6.00 to 6.52 |
| COc1cc2nccc(Oc3ccc(NC(=O)c4ccc(C)n(-c5ccc(F)c(C)n5)c4=O)cc3F)c2nc1OC [Compound 227, N-[4-[(6,7-Dimethoxy-1,5-naphthyridin-4-yl)oxy]-3-fluorophenyl]-1-(5-fluoro-6-methylpyridin-2-yl)-6-methyl-2-oxopyridine-3-carboxamide hydrochloride] | ≥ 7.00 |
| COc1cc2nccc(Oc3ccc(NC(=O)c4cc(C(C)=O)c(C)n(-c5ccco5)c4=O)cc3)c2nc1OC [Compound 237, 5-Acetyl-N-[4-[(6,7-dimethoxy-1,5-naphthyridin-4-yl)oxy]phenyl]-1-(furan-2-yl)-6-methyl-2-oxopyridine-3-carboxamide] | 6.00 to 6.52 |
| COc1cc2nccc(Oc3ccc(NC(=O)c4cnc(C)c(-c5ccco5)n4)cc3F)c2nc1OC [Compound 269, N-[4-[(6,7-Dimethoxy-1,5-naphthyridin-4-yl)oxy]-3-fluorophenyl]-6-(furan-2-yl)-5-methylpyrazine-2-carboxamide] | 6.00 to 6.52 |
| COc1cc2nccc(Oc3ccc(NC(=O)c4c5n(cc(-c6ccco6)c4=O)CCOC5)cc3)c2nc1OC [Compound 298, N-[4-[(6,7-Dimethoxy-1,5-naphthyridin-4-yl)oxy]phenyl]-7-(furan-2-yl)-8-oxo-3,4-dihydro-1H-pyrido[2,1-c][1,4]oxazine-9-carboxamide] | 6.00 to 6.52 |
| COc1cc(-n2c(C)ccc(C(=O)Nc3ccc(Oc4ccnc5cc(OC)c(OC)nc45)c(F)c3)c2=O)ccn1 [Compound 226, N-[4-[(6,7-Dimethoxy-1,5-naphthyridin-4-yl)oxy]-3-fluorophenyl]-1-(2-methoxypyridin-4-yl)-6-methyl-2-oxopyridine-3-carboxamide] | ≥ 7.00 |
| COc1cc2nccc(Oc3ccc(NC(=O)c4cn(CCF)c(C)c(-c5cccs5)c4=O)cc3F)c2nc1OC [Compound 327, N-[4-[(6,7-Dimethoxy-1,5-naphthyridin-4-yl)oxy]-3-fluorophenyl]-1-(2-fluoroethyl)-6-methyl-4-oxo-5-thiophen-2-ylpyridine-3-carboxamide] | 6.52 to 7.00 |
| COc1cc2nccc(Oc3ccc(NC(=O)c4c5n(cc(-c6ccc(C)s6)c4=O)CCOC5)cc3)c2nc1OC [Compound 305, N-[4-[(6,7-Dimethoxy-1,5-naphthyridin-4-yl)oxy]phenyl]-7-(5-methylthiophen-2-yl)-8-oxo-3,4-dihydro-1H-pyrido[2,1-c][1,4]oxazine-9-carboxamide] | 6.00 to 6.52 |
| COc1cc2nccc(Oc3ccc(NC(=O)c4c5n(cc(-c6cccs6)c4=O)CCOC5)cc3F)c2nc1OC [Compound 309, N-[4-[(6,7-Dimethoxy-1,5-naphthyridin-4-yl)oxy]-3-fluorophenyl]-8-oxo-7-thiophen-2-yl-3,4-dihydro-1H-pyrido[2,1-c][1,4]oxazine-9-carboxamide] | 6.00 to 6.52 |
| COc1cc2nccc(Oc3ccc(NC(=O)c4cccn(-c5cc[n+]([O-])cc5)c4=O)cc3F)c2nc1OC [Compound 247, N-[4-[(6,7-Dimethoxy-1,5-naphthyridin-4-yl)oxy]-3-fluorophenyl]-1-(1-oxidopyridin-1-ium-4-yl)-2-oxopyridine-3-carboxamide hydrochloride] | 6.52 to 7.00 |
| COc1cc2nccc(Oc3ccc(NC(=O)c4nccn(-c5ccc(F)cn5)c4=O)cc3F)c2nc1OC [Compound 246, N-[4-[(6,7Dimethoxy-1,5-naphthyridin-4-yl)oxy]-3-fluorophenyl]-4-(5-fluoropyridin-2-yl)-3-oxopyrazine-2-carboxamide] | 6.52 to 7.00 |
| COc1cc2nccc(Oc3ccc(NC(=O)c4c(C)ncc(-c5cccnc5)c4O)cc3F)c2nc1OC [Compound 228, N-[4-[(6,7-Dimethoxy-1,5-naphthyridin-4-yl)oxy]-3-fluorophenyl]-4-hydroxy-2-methyl-5-pyridin-3-ylpyridine-3-carboxamide] | ≥ 7.00 |
| CCOc1ccn(-c2ccc(F)cn2)c(=O)c1C(=O)Nc1ccc(Oc2ccnc3cc(OC)c(OC)nc23)c(F)c1 [Compound 243, N-[4-[(6,7-dimethoxy-1,5-naphthyridin-4-yl)oxy]-3-fluorophenyl]-4-ethoxy-1-(5-fluoropyridin-2-yl)-2-oxopyridine-3-carboxamide] | 6.52 to 7.00 |
| COc1cc2nccc(Oc3ccc(NC(=O)c4cc(C(C)=O)c(C)n(-c5ccoc5)c4=O)cc3F)c2nc1OC [Compound 235, 5-Acetyl-N-[4-[(6,7-dimethoxy-1,5-naphthyridin-4-yl)oxy]-3-fluorophenyl]-1-(furan-3-yl)-6-methyl-2-oxopyridine-3-carboxamide] | 6.00 to 6.52 |
| COc1cc2nccc(Oc3ccc(NC(=O)c4c(C)cc(C)n(-c5ccc(F)cn5)c4=O)cc3)c2nc1OC [Compound 245, N-[4-[(6,7-Dimethoxy-1,5-naphthyridin-4-yl)oxy]phenyl]-1-(5-fluoropyridin-2-yl)-4,6-dimethyl-2-oxopyridine-3-carboxamide] | ≥ 7.00 |
| COc1cnc2c(Oc3ccc(NC(=O)c4cc(C(C)=O)c(C)n(-c5ccoc5)c4=O)cc3F)ccnc2c1 [Compound 240, 5-Acetyl-N-[3-fluoro-4-[(7-methoxy-1,5-naphthyridin-4-yl)oxy]phenyl]-1-(furan-3-yl)-6-methyl-2-oxopyridine-3-carboxamide] | 6.00 to 6.52 |
| COc1cc2nccc(Oc3ccc(NC(=O)c4cnc(C)c(-c5cccs5)c4O)cc3)c2nc1OC [Compound 256, N-[4-[(6,7-Dimethoxy-1,5-naphthyridin-4-yl)oxy]phenyl]-4-hydroxy-6-methyl-5-thiophen-2-ylpyridine-3-carboxamide] | ≥ 7.00 |
| COc1cc2nccc(Oc3ccc(NC(=O)c4cnc(C)c(-c5ccco5)c4O)cc3)c2nc1OC [Compound 255, N-[4-[(6,7-Dimethoxy-1,5-naphthyridin-4-yl)oxy]phenyl]-5-(furan-2-yl)-4-hydroxy-6-methylpyridine-3-carboxamide] | ≥ 7.00 |
| COCCOc1cc2nccc(Oc3ccc(NC(=O)c4c(C)n(C)c(C)c(-c5coc6ccccc56)c4=O)cc3F)c2nc1OC [Compound 264, 5-(1-Benzofuran-3-yl)-N-[3-fluoro-4-[[6-methoxy-7-(2-methoxyethoxy)-1,5-naphthyridin-4-yl]oxy]phenyl]-1,2,6-trimethyl-4-oxopyridine-3-carboxamide] | 6.00 to 6.52 |
| CCc1c(C(=O)Nc2ccc(Oc3ccnc4cc(OC)c(OC)nc34)c(F)c2)c(=O)c(-c2ccco2)c(C)n1C [Compound 324, N-[4-[(6,7-Dimethoxy-1,5-naphthyridin-4-yl)oxy]-3-fluorophenyl]-2-ethyl-5-(furan-2-yl)-1,6-dimethyl-4-oxopyridine-3-carboxamide] | ≥ 7.00 |
| CCOc1ccn(-c2ccc(F)cn2)c(=O)c1C(=O)Nc1ccc(Oc2ccnc3cc(OC)c(OC)nc23)cc1 [Compound 244, N-[4-[(6,7-Dimethoxy-1,5-naphthyridin-4-yl)oxy]phenyl]-4-ethoxy-1-(5-fluoropyridin-2-yl)-2-oxopyridine-3-carboxamide] | 6.00 to 6.52 |
| COc1cc2nccc(Oc3ccc(NC(=O)c4c(C)n(C)c(C)c(-c5coc6ccccc56)c4=O)cc3F)c2nc1OC [Compound 262, 5-(1-Benzofuran-3-yl)-N-[4-[(6,7-dimethoxy-1,5-naphthyridin-4-yl)oxy]-3-fluorophenyl]-1,2,6-trimethyl-4-oxopyridine-3-carboxamide] | 6.00 to 6.52 |
| COc1cc2nccc(Oc3ccc(NC(=O)c4cccn(-c5ccncc5)c4=O)cc3F)c2nc1OC [Compound 229, N-[4-[(6,7-Dimethoxy-1,5-naphthyridin-4-yl)oxy]-3-fluorophenyl]-2-oxo-1-pyridin-4-ylpyridine-3-carboxamide] | ≥ 7.00 |
| COc1cc2nccc(Oc3ccc(NC(=O)c4c5n(c(C)c(-c6ccsc6)c4=O)CCOC5)cc3F)c2nc1OC [Compound 307, N-[4-[(6,7-Dimethoxy-1,5-naphthyridin-4-yl)oxy]-3-fluorophenyl]-6-methyl-8-oxo-7-thiophen-3-yl-3,4-dihydro-1H-pyrido[2,1-c][1,4]oxazine-9-carboxamide] | 6.52 to 7.00 |
| COCCOc1cc2nccc(Oc3ccc(NC(=O)c4c(C)n(C)c(C)c(-c5cc6ccccc6o5)c4=O)cc3F)c2nc1OC [Compound 263, 5-(1-Benzofuran-2-yl)-N-[3-fluoro-4-[[6-methoxy-7-(2-methoxyethoxy)-1,5-naphthyridin-4-yl]oxy]phenyl]-1,2,6-trimethyl-4-oxopyridine-3-carboxamide] | 6.00 to 6.52 |
| COc1cnc2c(Oc3ccc(NC(=O)c4cnc(C)c(-c5cccs5)c4O)cc3)ccnc2c1 [Compound 257, 4-Hydroxy-N-[4-[(7-methoxy-1,5-naphthyridin-4-yl)oxy]phenyl]-6-methyl-5-thiophen-2-ylpyridine-3-carboxamide] | ≥ 7.00 |
| COc1cc2nccc(Oc3ccc(NC(=O)c4c5n(cc(-c6ccoc6)c4=O)CCOC5)cc3F)c2nc1OC [Compound 306, N-[4-[(6,7-Dimethoxy-1,5-naphthyridin-4-yl)oxy]-3-fluorophenyl]-7-(furan-3-yl)-8-oxo-3,4-dihydro-1H-pyrido[2,1-c][1,4]oxazine-9-carboxamide] | 6.00 to 6.52 |
| COc1cc2nccc(Oc3ccc(NC(=O)c4c(C)n(C)c(C)c(-c5cc6ccccc6o5)c4=O)cc3F)c2nc1OC [Compound 261, 5-(1-Benzofuran-2-yl)-N-[4-[(6,7-dimethoxy-1,5-naphthyridin-4-yl)oxy]-3-fluorophenyl]-1,2,6-trimethyl-4-oxopyridine-3-carboxamide] | 6.00 to 6.52 |
| COc1cc2nccc(Oc3ccc(NC(=O)c4ccc(C)n(-c5ccnc(F)c5)c4=O)cc3F)c2nc1OC [Compound 233, N-[4-[(6,7-Dimethoxy-1,5-naphthyridin-4-yl)oxy]-3-fluorophenyl]-1-(2-fluoropyridin-4-yl)-6-methyl-2-oxopyridine-3-carboxamide] | ≥ 7.00 |
